Assay results as given in publication PMC10975543, “Redox Reactivity of Nonsymbiotic Phytoglobins towards Nitrite” (Molecules, 2024).

Target: T1, AtHb3 (Arabidopsis thaliana, UniProt Q67XG0)
T1 construct: gene GLB3; recombinant in E. coli BL21(DE3), N-terminal 8xHis-MBP tag, TEV cleaved; class 3 truncated Hb; ferric (met) heme form
T1 sequence (Q67XG0 1-175): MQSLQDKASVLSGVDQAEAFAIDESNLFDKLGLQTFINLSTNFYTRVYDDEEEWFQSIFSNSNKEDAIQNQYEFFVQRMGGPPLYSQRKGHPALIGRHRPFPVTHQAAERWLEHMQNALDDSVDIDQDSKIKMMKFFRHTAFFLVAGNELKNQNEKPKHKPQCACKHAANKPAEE
Test: UV-vis titration of the Soret band at […] nm
Assay type: binding

O=NO [nitrite]
Kd: 1500 ± 500 µM
